Values joined by “and” are separate entries in the source; they are usually repeats but may differ in a detail not shown here. Equal values may be shown once. Read-outs that look alike come from different tables or passages of the source.
What was measured:
Type in all cases: cell-based, Hepatitis B virus
[1] = test system: wild-type (WT) recombinant HBV-baculovirus; assay: Antiviral testing, wild-type (1.3x genomic length) recombinant HBV-baculovirus in HepG2 cells (Example 17)
Method: (§1) HepG2 cells were seeded at approximately 20-40% confluency and then were grown for 16-24 hours before infection. On the day of infection, triplicate plates of cells were trypsinized, and viable cell number was determined with a hemocytometer using Trypan blue exclusion. Average cell counts were calculated and used to determine the volume of high-titer viral stock necessary to infect cells at the indicated moi. HepG2 cells were washed one time with serum-free MEM to remove traces of serum. Baculovirus was diluted into MEM without serum to achieve the appropriate moi using volumes of 1.0, 0.5, and 0.25 ml to infect 100-mm, 60 mm, and 35-mm dishes, respectively. Baculovirus was adsorbed to HepG2 cells for one hour at 37° C. with gentle rocking every 15 minutes to ensure that the inoculum was evenly distributed. The inoculum was then aspirated and HepG2 cells were washed two times with phosphate-buffered saline and refed MEM-FBS with or without various concentrations of agents.
(§2) HBV core particles were isolated from the cytoplasmic fraction of HepG2 cells lysed in 0.5% w/v NP-40. Cytoplasmic extracts were adjusted to 10 mmol/l McC12 and unprotected DNA was removed by an incubation to […] for 1.5 hours at 37° C. Following sequential phenol and chloroform extractions, nucleic acids were recovered by ethanol precipitation. Nucleic acids were resuspended in 50 μl/l TE (10 mmol/l Tris, 1 mmol/l ethylenedianinetetraacetic acid), normalized by OD260, and digested with 100 μg/ml RNase (Boehringer Mannheim, Indianapolis, Ind.) for one hour at 37° C. before analysis by electrophoresis and Southern blotting. A BioRad GS-670 imaging densitometer and the Molecular Analyst software (BioRad, Hecules Calif.) was used to analyze suitable exposures of Southern blots. Densitometry data was fitted to logistic dose response curves using the TableCurve2D software package from Jandel Scientific. Logistic dose response equations were used to calculate IC50 and IC90 values and co-efficients of variation.
(§3) Conditioned medium was collected from HepG2 cells and subjected to centrifugation at 6,000 g for five minutes to remove cellular debris. HBV particles were precipitated with 10% w/v PEG 8000 and were concentrated by centrifugation at 12,000 ×g. Viral pellets were resuspended us 1 ml of MEM-FBS and divided into two aliquots. One set of aliquots was treated with 750 μg/ml Pronase for one hour and then with […] DNase 1 for one hour. Both sets of aliquots were then digested with Proteinase K, and extracted with phenol and chloroform. DNA was precipitated with 0.1 volume of 3 mol/l sodium acetate and 1 volume of isopropanol. Ten micrograms of transfer RNA was added as a carrier during precipitation. Pellets were resuspended in 25 μl of TE and digested with 0.5 mg/ml RNase for one hour. DNA was then analyzed by electrophoresis and Southern blotting.
(§4) 3TC and PCV were a gift from Klaus Esser, SmithKline Beecham, Collegeville, Pa. PMEA was obtained from Gilead (Foster City, Calif.). 3TC was resuspended in sterile water, aliquoted, and frozen at −20° C. to avoid repeated freezing and thawing of the drug. PMEA was resuspended in sterile water after the pH was adjusted to 7.0 with NaOH. PCV was resuspended in dimethyl sulphoxide. Medium containing 3TC was prepared daily as needed using fresh aliquots of 3TC. In experiments in which 3TC treatment was initiated after viral infection, HepG2 cells were exposed to the indicated concentration of 3TC immediately after infection with HBV baculovirus. In experiments utilizing pretreatment with 3TC, cells were fed medium containing 3TC 16 hours prior to HBV baculovirus infection, HBV baculovirus infection was also carried out in medium containing 3TC, and cells were refed fresh medium containing 3TC immediately after completion of the infection and washing procedures. Treatment with PMEA and PCV were conducted in a similar manner.

[2] = test system: L526M HBV baculovirus; assay: Antiviral testing with L526M HBV baculovirus in HepG2 cells (Example 15); conditions: for inhibition at 1 µM / IC50: Hepatitis B virus
Method: as §1, §2, §4

[3] = test system: M550I HBV baculovirus; assay: Antiviral testing with M550I HBV baculovirus in HepG2 cells (Example 15); conditions: for inhibition at 1 µM / IC50: Hepatitis B virus, 550 (M550I) HBV; for inhibition at 1 µM: ds HBV DNA band density vs untreated controls, estimated from fitted curve, negative = stimulation; for IC50: ds HBV DNA bands
Method: as §1, §2, §4

[4] = test system: wild-type HBV baculovirus; assay: Antiviral testing with wild-type HBV baculovirus in HepG2 cells (Example 15, Southern blot densitometry); conditions: for inhibition at 1 µM / IC50: Hepatitis B virus, wt HBV; for inhibition at 1 µM: HepG2, ds HBV DNA band density vs untreated controls, estimated from fitted curve, negative = stimulation of replication; for IC50: ds HBV DNA bands, HepG2 cells
Method: as §1, §2, §4
The dose effect of 3TC and PMEA, on wild-type HBV is shown graphically in FIG. 6 (A, B,) and a Southern Blot of intracellular HBV replicative intermediates and extracellular virus produced by HepG2 cells transduced with wild-type HBV-baculovirus in the presence of increasing concentrations of PCV is shown in FIG. 6C and the IC50 for each antiviral agent is shown in Table 2.

[5] = test system: precore (G1896A) recombinant HBV-baculovirus; assay: Antiviral testing of the precore mutant (G1896A) HBV baculovirus in HepG2 cells (Example 17)
Method: as §1, §2, §3, §4

[6] = test system: L526M/M550V HBV baculovirus; assay: Antiviral testing with L526M/M550V HBV baculovirus in HepG2 cells (Example 15); conditions: for inhibition at 1 µM / IC50: Hepatitis B virus, dual (L526M/M550V) HBV; for inhibition at 1 µM: HepG2, ds HBV DNA band density vs untreated controls, estimated from fitted curve, negative = stimulation; for IC50: ds HBV DNA bands, HepG2 cells
Method: as §1, §2, §4

[7] = test system: M550I recombinant HBV-baculovirus; assay: Antiviral testing, M550I recombinant HBV-baculovirus in HepG2 cells (Example 17); conditions: intracellular single-stranded HBV DNA, NDR = no dose response
Method: as §1
(§5) HBV core particles were isolated from the cytoplasmic fraction of HepG2 cells lysed in 0.5% w/v NP-40. […]
(§6) Conditioned medium was collected from HepG2 cells and subjected to centrifugation at 6,000 g for five minutes to remove cellular debris. […] DNA was then analyzed by electrophoresis and Southern blotting. […]

[8] = test system: any HBV/baculovirus variant encoding the mutations at M550I or L526M/M550V; assay: Southern blots of HBV DNA from HepG2 cells transduced with lamivudine-resistant recombinant HBV-baculovirus variants (Example 17); conditions: intracellular and extracellular HBV DNA, no dose response could be plotted
Method: as §1, §5, §6

[9] = test system: Precore/M550I recombinant HBV-baculovirus; assay: Antiviral testing, Precore/M550I recombinant HBV-baculovirus in HepG2 cells (Example 17); conditions: NDR = no dose response
Method: as §1, §2
as §3, with “Pellets were resuspended in 25 μl of TE and digested with 0.5 mg/ml RNase for one hour.” left out, “blotting. […]” for “blotting.”

[10] = test system: Precore/L526M/M550V recombinant HBV-baculovirus; assay: Antiviral testing, Precore/L526M/M550V recombinant HBV-baculovirus in HepG2 cells (Example 17); conditions: NDR = no dose response
Method: as §1, §2
as §3, with “Pellets were resuspended in 25 μl of TE and digested with 0.5 mg/ml RNase for one hour.” left out, “blotting. […]” for “blotting.”

[11] = test system: L526M/M550V recombinant HBV-baculovirus; assay: Antiviral testing, L526M/M550V recombinant HBV-baculovirus in HepG2 cells (Example 17); conditions: intracellular single-stranded HBV DNA, NDR = no dose response
Method: as §1, §5, §6

[12] = extracellular relaxed circular HBV DNA
[13] = intracellular single-stranded HBV DNA

With `Nc1ccn([C@@H]2CS[C@H](CO)O2)c(=O)n1` [Lamivudine, (−)-b-L-2′,3′-dideoxy-3′-thiacytidine] the IC50 ([1]; Hepatitis B virus, HepG2, WT, intracellular single-stranded HBV DNA, individual experiments behind the average, read-out: IC50, single experiments, IC SS) was 0.067 µM, the IC50 ([1]; Hepatitis B virus, HepG2, read-out: IC50 (μM), EC RC, WT, extracellular relaxed circular HBV DNA, averages where footnoted) was 0.018 µM and the IC50 ([1]; Hepatitis B virus, HepG2, read-out: IC50 (μM), IC SS, WT, intracellular single-stranded HBV DNA, averages where footnoted) was 0.0697 µM. For the same molecule, the IC50 ([1]; WT, extracellular relaxed circular HBV DNA, individual experiments behind the average, read-out: IC50, single experiments, EC RC) was 0.022 µM and 0.0293 µM and 0.0095 µM, the IC50 ([1]; WT, intracellular single-stranded HBV DNA, individual experiments behind the average, read-out: IC50, single experiments, IC SS) was 0.085 µM and 0.0572 µM and the inhibition at 1 µM ([2]; HepG2, 526 (L526M) HBV, ds HBV DNA band density vs untreated controls, estimated from fitted curve, negative = stimulation, read-out: Inhibition at 1 μM) was 85.8%. For the same molecule, the IC50 ([2]; 526 (L526M) HBV, ds HBV DNA bands, HepG2 cells, read-out: IC50) was 0.03 µM, the “shift in the IC50 compared to the wild-type” value ([2]; L526M vs wild-type, FIG. 7A) was over 0.5 log and the “Resistance Factor” value ([2]; {}) was 3. For the same molecule, the inhibition at 1 µM ([3]; HepG2) was 26.7%, the IC50 ([3]; HepG2 cells, read-out: IC50) was 3.8 µM and the “Resistance Factor” value [3] was 422. For the same molecule, the inhibition at 1 µM [4] was 99.6%, the IC50 [4] was 0.009 µM and the “Resistance Factor” value [4] was 1. It also gave an IC50 ([5]; Hepatitis B virus, HepG2, Precore (G1896A), extracellular relaxed circular HBV DNA, individual experiments behind the average, read-out: IC50, single experiments, EC RC) of 0.012 µM, an IC50 ([5]; Hepatitis B virus, HepG2, read-out: IC50 (μM), EC RC, Precore (G1896A), extracellular relaxed circular HBV DNA, averages where footnoted) of 0.011 µM and an IC50 ([5]; Hepatitis B virus, HepG2, read-out: IC50 (μM), IC SS, Precore (G1896A), intracellular single-stranded HBV DNA, averages where footnoted) of 0.0207 µM. The IC50 ([5]; Precore (G1896A), extracellular relaxed circular HBV DNA, individual experiments behind the average, read-out: IC50, single experiments, EC RC) was 0.01 µM, the IC50 ([5]; Precore (G1896A), intracellular single-stranded HBV DNA, individual experiments behind the average, read-out: IC50, single experiments, IC SS) was 14 nM (2×) and 32 nM and the inhibition at 1 µM [6] was -15%. For the same molecule, the IC50 [6] was 86.2 µM and the “Resistance Factor” value [6] was 9578.
In the case of `Nc1nc2c(ncn2CCC(CO)CO)c(=O)[nH]1` [Penciclovir, 9-[4-hydroxy-3-(hydroxymethyl)but-1-yl]guanine], the “IC50 (μM), IC SS” value [7] is reported as “NDR”, the IC50 ([1]; Hepatitis B virus, HepG2, WT, extracellular relaxed circular HBV DNA, averages where footnoted, read-out: IC50 (μM), EC RC) is reported as 23 µM and the IC50 ([1]; Hepatitis B virus, HepG2, WT, intracellular single-stranded HBV DNA, averages where footnoted, read-out: IC50 (μM), IC SS) is reported as 226 µM. For the same molecule, the “resistance conferred by M550I or L526M/M550V changes” value [8] was “high degree of resistance”, the “Resistance Factor” value ([2]; 526 (L526M) HBV, mutant IC50 divided by wt IC50, nearest integer) was 9 and the “change in sensitivity of L526M compared to wild-type” value ([2]; FIG. 7A-7C, result in words) was “No significant change”. For the same molecule, the IC50 ([2]; HepG2) was 103 µM, the inhibition at 1 µM ([2]; HepG2, read-out: Inhibition at 1 μM) was -3% and the “IC50 (μM), EC RC” value [9, 12] was “NDR”. For the same molecule, the “IC50 (μM), IC SS” value [9, 13] was “NDR”, the inhibition at 1 µM ([3]; HepG2) was -24% and the IC50 ([3]; HepG2, extrapolated value, read-out: IC50 (μM), extrapolated value) was 1220 µM. For the same molecule, the “Resistance Factor” value [3] was 106, the “IC50 (μM), EC RC” value [10, 12] was “NDR” and the “IC50 (μM), IC SS” value [10, 13] was “NDR”. For the same molecule, the “IC50 (μM), IC SS” value [11] was “NDR”, the inhibition at 1 µM [4] was 7% and the IC50 [4] was 11.5 µM. For the same molecule, the “effect on wild-type HBV replication” value ([4]; dose effect, FIG. 6, result in words) was “modest effect”, the “Resistance Factor” value [4] was 1 and the IC50 ([5]; Hepatitis B virus, HepG2, Precore (G1896A), extracellular relaxed circular HBV DNA, averages where footnoted, read-out: IC50 (μM), EC RC) was 6 µM. The IC50 ([5]; Hepatitis B virus, HepG2, Precore (G1896A), intracellular single-stranded HBV DNA, averages where footnoted, read-out: IC50 (μM), IC SS) was 85 µM, the “sensitivity of G1896A HBV compared with wild type HBV” value ([5]; result in words) was “may be more sensitive” and the “change in sensitivity of L526M/M550V” value ([6]; FIG. 8A-8C, result in words) was “no substantial change”. For the same molecule, the inhibition at 1 µM [6] was -10%, the IC50 [6] was 370 µM and the “Resistance Factor” value [6] was 32.

From patent publication US6969583B2, “Method for detecting variant HBV” (Melbourne Health, priority 2000, dated 2005)
